The term Papp B→A denotes how fast a substance crosses the layer from the basolateral side.

The source of these data is publication PMC8330100, “Similarities and differences in the localization, trafficking, and function of P-glycoprotein in MDR1-EGFP-transduced rat versus human brain capillary endothelial cell lines” (Fluids and Barriers of the CNS, 2021).

Molecules are shown by their SMILES.

The subject of one data set is LLC-MDR1 cell monolayers. Kind of data set: Paracellular mannitol flux across LLC-MDR1 monolayers. The class given is in vitro ADME, porcine.
Experiment in data set [1]: as above
The class given is in vitro ADME, porcine. To be noted: pig, LLC-PK1, corresponding to the flux per hour, read-out: mannitol permeability.

The subject of another data set is RBE4 cell monolayers. Kind of data set: Mannitol permeability assay (basolateral to apical) across RBE4 monolayers. The class given is in vitro ADME, rat. Here is the method: (§1) Incubation was performed under cell culture conditions (37 °C, 5% CO2, humidified atmosphere) on a horizontal shaker (55 rpm). […] Basolateral volume was adjusted after each sampling to compensate for changes in the hydrostatic pressure. TEER measurements before and after the assay were carried out to confirm barrier integrity. The apparent permeability coefficients (Papp) in nm per second were calculated according to Artursson. Each experiment was performed in at least three replicates. As was described for the TEER measurements above, mannitol fluxes were compared in the ThinCert®, Transwell®, and Sarstedt-TC-insert systems, using 6-well and 12-well multiwell plates and different membrane materials. Based on this comparison, all subsequent experiments were performed with ThinCert® cell culture inserts [12-well, 0.4 µm pore size, polyethylene terephthalate (PET)] from Greiner Bio-One.

Experiment in data set [2]: as above
The class given is in vitro ADME, rat. The conditions noted are these: rat. The procedure: as §1

Another data set has as its system hCMEC/D3 cell monolayers. Kind of data set: Mannitol permeability assay (basolateral to apical) across hCMEC/D3 monolayers. The class given is in vitro ADME, human. The procedure:
as §1

Experiment in data set [3]: as above
The class given is in vitro ADME, human. The conditions noted are these: human. Here is the method: as §1

In data set [4] the target is T1, Pgp in RBE4-MDR1-EGFP cells (Homo sapiens, UniProt P08183).
T1 construct: expressed in transfected cells; host or cells: RBE4 (rat BCEC line), lentiviral transduction, doxycycline-inducible
T1 sequence (P08183 with tags, fused parts or gaps): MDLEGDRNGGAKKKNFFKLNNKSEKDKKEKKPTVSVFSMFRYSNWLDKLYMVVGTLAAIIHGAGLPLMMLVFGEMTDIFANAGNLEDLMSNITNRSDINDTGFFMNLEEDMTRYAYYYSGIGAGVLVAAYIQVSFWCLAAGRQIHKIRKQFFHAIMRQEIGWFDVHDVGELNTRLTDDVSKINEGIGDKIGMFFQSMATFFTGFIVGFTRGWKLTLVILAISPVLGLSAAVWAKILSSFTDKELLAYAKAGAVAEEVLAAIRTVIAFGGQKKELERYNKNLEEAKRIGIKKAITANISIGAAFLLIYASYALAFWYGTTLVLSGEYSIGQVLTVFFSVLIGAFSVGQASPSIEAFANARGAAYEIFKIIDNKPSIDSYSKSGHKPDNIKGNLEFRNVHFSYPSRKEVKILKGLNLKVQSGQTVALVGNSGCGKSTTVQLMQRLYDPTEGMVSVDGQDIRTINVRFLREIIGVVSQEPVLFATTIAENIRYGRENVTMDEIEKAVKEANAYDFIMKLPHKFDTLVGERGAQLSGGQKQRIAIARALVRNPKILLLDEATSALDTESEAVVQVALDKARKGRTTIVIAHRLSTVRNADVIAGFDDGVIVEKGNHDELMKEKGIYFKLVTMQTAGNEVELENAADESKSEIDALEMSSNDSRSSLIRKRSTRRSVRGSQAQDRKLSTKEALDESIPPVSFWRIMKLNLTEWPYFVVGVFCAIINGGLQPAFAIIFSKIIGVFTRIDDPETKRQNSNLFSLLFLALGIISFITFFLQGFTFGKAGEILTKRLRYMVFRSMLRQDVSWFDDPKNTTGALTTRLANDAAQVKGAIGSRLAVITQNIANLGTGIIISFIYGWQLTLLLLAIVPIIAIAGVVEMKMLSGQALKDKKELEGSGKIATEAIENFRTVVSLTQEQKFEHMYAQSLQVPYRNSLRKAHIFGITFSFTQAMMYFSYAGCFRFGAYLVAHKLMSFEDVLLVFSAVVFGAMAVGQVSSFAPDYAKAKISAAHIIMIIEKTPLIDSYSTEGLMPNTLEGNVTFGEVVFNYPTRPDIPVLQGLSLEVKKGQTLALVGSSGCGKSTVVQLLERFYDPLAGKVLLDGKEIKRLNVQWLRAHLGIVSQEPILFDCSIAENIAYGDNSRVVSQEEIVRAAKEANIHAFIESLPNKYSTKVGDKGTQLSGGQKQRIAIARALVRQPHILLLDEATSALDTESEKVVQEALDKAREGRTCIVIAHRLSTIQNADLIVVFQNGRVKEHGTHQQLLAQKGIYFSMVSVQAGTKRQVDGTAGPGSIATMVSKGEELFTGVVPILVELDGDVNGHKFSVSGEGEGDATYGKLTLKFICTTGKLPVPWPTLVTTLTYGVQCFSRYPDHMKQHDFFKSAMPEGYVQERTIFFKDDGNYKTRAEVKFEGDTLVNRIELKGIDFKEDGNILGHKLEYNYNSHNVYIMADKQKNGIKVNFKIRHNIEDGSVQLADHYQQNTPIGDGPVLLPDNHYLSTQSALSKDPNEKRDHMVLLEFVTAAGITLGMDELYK
Kind of data set: Rhodamine 123 uptake/accumulation assay, RBE4-MDR1-EGFP cells. The class given is cell-based, rat. To be noted: RBE4-MDR1-EGFP in the presence of doxycycline; tariquidar 0.5 µM. Here is the method:
Piet Borst (The Netherlands Cancer Institute, Amsterdam, The Netherlands) as template. The linker sequence in the vector fusing EGFP and MDR1 consists of 36 bp ([…]). hCMEC/D3-WT, RBE4-WT, and hCMEC/D3-MDR1-EGFP cell lines were cultivated as previously described. The same culture conditions were used for the newly prepared RBE4-MDR1-EGFP cell line. As described previously, hydrocortisone (1.4 µM) was added to the culture medium to enhance the expression and functionality of Pgp and transendothelial resistance. All endothelial cell lines were grown on rat-tail collagen I (60 µg/mL, Gibco) coated 100 mm cultures dishes or permeable membrane supports at 37 °C and 5% CO2. Pgp-EGFP protein expression in MDR1-EGFP transduced cells was induced by cell cultivation in medium containing […] doxycycline. Expression of Pgp-EGFP was regularly verified by observing the cells with an inverted fluorescence microscope. Doxycycline supplementation of the medium was maintained during the whole culturing period of Pgp-EGFP expressing cells. For experiments, hCMEC/D3 and RBE4 cells were seeded in a density of 50,000 cells/cm^2. Immortalized MDR1 transfected porcine kidney LLC-PK1 (LLC-MDR1) cells, which were used as a reference standard for vectorial transport experiments, were kindly provided by Prof. Piet Borst. […]

The target in a further data set is T2, Pgp in hCMEC/D3-WT cells (Homo sapiens, UniProt P08183).
T2 construct: endogenous in cells; host or cells: hCMEC/D3-WT
T2 sequence (P08183 whole entry): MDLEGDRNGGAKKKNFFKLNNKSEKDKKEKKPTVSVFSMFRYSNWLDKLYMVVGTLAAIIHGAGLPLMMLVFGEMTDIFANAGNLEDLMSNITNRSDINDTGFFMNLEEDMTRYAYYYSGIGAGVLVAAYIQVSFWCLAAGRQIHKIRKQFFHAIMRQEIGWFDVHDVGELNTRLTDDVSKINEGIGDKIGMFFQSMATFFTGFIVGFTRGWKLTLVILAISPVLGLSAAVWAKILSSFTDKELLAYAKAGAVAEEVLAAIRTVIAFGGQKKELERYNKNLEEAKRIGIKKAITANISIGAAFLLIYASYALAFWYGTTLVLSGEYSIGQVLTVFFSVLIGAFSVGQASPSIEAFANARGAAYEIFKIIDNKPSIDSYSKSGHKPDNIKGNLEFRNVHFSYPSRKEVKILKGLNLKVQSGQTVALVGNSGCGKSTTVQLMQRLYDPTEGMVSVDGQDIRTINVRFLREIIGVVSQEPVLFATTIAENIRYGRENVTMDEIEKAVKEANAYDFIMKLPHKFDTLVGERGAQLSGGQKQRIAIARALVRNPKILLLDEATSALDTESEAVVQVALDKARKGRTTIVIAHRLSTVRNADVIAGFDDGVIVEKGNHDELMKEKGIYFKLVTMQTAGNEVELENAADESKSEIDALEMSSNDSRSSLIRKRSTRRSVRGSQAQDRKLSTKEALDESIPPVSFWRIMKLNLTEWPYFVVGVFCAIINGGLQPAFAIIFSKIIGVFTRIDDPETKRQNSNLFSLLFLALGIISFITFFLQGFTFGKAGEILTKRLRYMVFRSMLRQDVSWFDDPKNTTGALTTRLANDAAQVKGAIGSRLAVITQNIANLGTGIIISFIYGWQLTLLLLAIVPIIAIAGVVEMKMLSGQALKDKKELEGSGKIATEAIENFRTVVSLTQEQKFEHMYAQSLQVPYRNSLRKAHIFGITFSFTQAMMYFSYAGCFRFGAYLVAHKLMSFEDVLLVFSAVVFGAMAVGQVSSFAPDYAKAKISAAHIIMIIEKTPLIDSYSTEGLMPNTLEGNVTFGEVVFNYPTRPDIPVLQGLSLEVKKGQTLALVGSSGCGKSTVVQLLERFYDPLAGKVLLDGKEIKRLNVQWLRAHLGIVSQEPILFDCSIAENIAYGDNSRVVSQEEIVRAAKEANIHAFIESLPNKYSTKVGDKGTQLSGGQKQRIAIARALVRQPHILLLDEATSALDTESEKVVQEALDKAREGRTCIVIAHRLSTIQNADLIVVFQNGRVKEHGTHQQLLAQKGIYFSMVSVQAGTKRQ
Kind of data set: Rhodamine 123 uptake/accumulation assay, hCMEC/D3-WT cells. The class given is cell-based. The conditions noted are these: tariquidar 0.5 µM.

The subject of a further data set is Pgp in RBE4-WT cells. Put plainly: Rhodamine 123 uptake/accumulation assay, RBE4-WT cells. The class given is cell-based, rat. To be noted: tariquidar 0.5 µM. The procedure:
The functionality of Pgp in RBE4-WT, RBE4-MDR1-EGFP, hCMEC/D3-WT, hCMEC/D3-MDR1-EGFP cells, and primary rBCECs was analyzed by measuring the uptake of the fluorescent Pgp substrate Rho123 (Sigma-Aldrich). Cells were grown on 6-well plates and cultured for seven days in the presence or absence of doxycycline (1 µg/mL, Biochrom). […] Afterward, Rho123 (5 µM, dissolved in ethanol) was added and cells were incubated for another two hours. Rho123 transport was terminated by washing the cells twice with ice-cold PBS. Intracellular Rho123 concentration was determined by cell lysis in standard lysis buffer (25 mM Tris, 50 mM NaCl, 0.5% (w/v) sodium deoxycholate, 0.5% (w/v) Triton X-100) and measurement of fluorescence intensity with the FLUOstar OPTIMA (ex.: 485 nm, em.: 520 nm; BMG Labtech). Protein concentrations were determined using a BCA assay kit (Thermo Fisher Scientific). Rho123 uptake was obtained for each condition in triplicates and calculated as absolute fluorescence per mg protein. Additionally, Pgp functionality was expressed as multidrug resistance activity factor (MAF) as described by Huber et al.. This factor describes Pgp efflux activity based on differences in intracellular Rho123 accumulation in cells after Pgp inhibition compared to cells with active Pgp-mediated efflux. Thus, higher MAF values correlate with increased Pgp activity. For better comparison, differences in Rho123 accumulation are normalized to intracellular Rho123 levels in inhibitor-treated cells. MAF values for Pgp were calculated according to Huber et al. 2012 utilizing the following equation: MAF (%) = 100 · (MFITQ − MFI0)/(MFITQ) where MFITQ and MFI0 represent the mean fluorescence intensity of intracellular Rho123 in tariquidar (TQ)-treated and non-treated cells, respectively.

The next data set concerns Pgp in primary rBCECs. Put plainly: Rhodamine 123 uptake/accumulation assay, primary rBCECs. The class given is cell-based, rat. The conditions noted are these: tariquidar 0.5 µM, P < 0.0001. From the text:
The RBE4 and hCMEC/D3 cell lines used here are immortalized, which has the advantage that these cells are stable for several passages and may yield a large number of endothelial cells with the same genetic and phenotypical characteristics. The immortalization status, however, causes several alterations as compared to the native original cell type, including low junctional tightness of cell monolayers and reduced expression of efflux transporters such as Pgp. Therefore, for comparison with the MDR1-EGFP transduced rat RBE4 cells, experiments were also performed with primary cultured rat brain capillary endothelial cells (rBCECs). As described by us previously, rBCECs were prepared following a protocol by Régina et al. and Perrière et al. from 2 to 3 weeks old Wistar rats (obtained from Charles River; Sulzfeld, Germany). All animals were treated according to protocols evaluated and approved by the ethical committee of our university. In short, meninges were removed from cerebral cortices in phosphate-buffered saline (PBS) with 1% penicillin (100 U/mL)/streptomycin (100 μg/mL) (Biochrom AG) on ice. Subsequently, cortices were mechanically dissociated with scalpels. […]
The functionality of Pgp in RBE4-WT, RBE4-MDR1-EGFP, hCMEC/D3-WT, hCMEC/D3-MDR1-EGFP cells, and primary rBCECs was analyzed by measuring the uptake of the fluorescent Pgp substrate Rho123 (Sigma-Aldrich). […] Intracellular Rho123 concentration was determined by cell lysis in standard lysis buffer (25 mM Tris, 50 mM NaCl, 0.5% (w/v) sodium deoxycholate, 0.5% (w/v) Triton X-100) and measurement of fluorescence intensity with the FLUOstar OPTIMA (ex.: 485 nm, em.: 520 nm; BMG Labtech). Protein concentrations were determined using a BCA assay kit (Thermo Fisher Scientific). Rho123 uptake was obtained for each condition in triplicates and calculated as absolute fluorescence per mg protein. Additionally, Pgp functionality was expressed as multidrug resistance activity factor (MAF) as described by Huber et al.. […]

The mark [5] stands for this setting: RBE4-MDR1 + dox, 7 days after seeding, basolateral to apical, ThinCert 12-well, 0.4 µm, PET.
Setting [6] is: RBE4-WT, 6-well, Corning #3412, PC, 1·10^8 pores/cm².
The mark [7] stands for this setting: RBE4-WT, 12-well, Corning #3460, PET, 4·10^6 pores/cm².
The mark [8] stands for this setting: RBE4-WT, 12-well, Sarstedt #83.3931.040, PET, 1·10^8 pores/cm².
Where [9] appears, read: RBE4-WT, 7 days after seeding, basolateral to apical, ThinCert (Greiner #665641) 12-well, 0.4 µm, PET, 2·10^6 pores/cm².
Where [10] appears, read: hCMEC/D3-MDR1 + dox, 7 days after seeding, basolateral to apical, ThinCert 12-well, 0.4 µm, PET.
Setting [11] is: hCMEC/D3-WT, 6-well, Corning #3412, PC, 1·10^8 pores/cm².
Setting [12] is: hCMEC/D3-WT, 12-well, Corning #3460, PET, 4·10^6 pores/cm².
Where [13] appears, read: hCMEC/D3-WT, 7 days after seeding, basolateral to apical, ThinCert (Greiner #665641) 12-well, 0.4 µm, PET, 2·10^6 pores/cm².

Description for Pgp in hCMEC/D3-WT cells: The functionality of Pgp in RBE4-WT, RBE4-MDR1-EGFP, hCMEC/D3-WT, hCMEC/D3-MDR1-EGFP cells, and primary rBCECs was analyzed by measuring the uptake of the fluorescent Pgp substrate Rho123 (Sigma-Aldrich). Cells were grown on 6-well plates and cultured for seven days in the presence or absence of doxycycline (1 µg/mL, Biochrom). […] Afterward, Rho123 (5 µM, dissolved in ethanol) was added and cells were incubated for another two hours. Rho123 transport was terminated by washing the cells twice with ice-cold PBS. […] Rho123 uptake was obtained for each condition in triplicates and calculated as absolute fluorescence per mg protein. Additionally, Pgp functionality was expressed as multidrug resistance activity factor (MAF) as described by Huber et al. [40]. This factor describes Pgp efflux activity based on differences in intracellular Rho123 accumulation in cells after Pgp inhibition compared to cells with active Pgp-mediated efflux. Thus, higher MAF values correlate with increased Pgp activity. […] MAF values for Pgp were calculated according to Huber et al. 2012 utilizing the following equation: MAF (%) = 100 · (MFITQ − MFI0)/(MFITQ) where MFITQ and MFI0 represent the mean fluorescence intensity of intracellular Rho123 in tariquidar (TQ)-treated and non-treated cells, respectively.

For the compound `OC[C@@H](O)[C@@H](O)[C@H](O)[C@H](O)CO` [Mannitol, D-mannitol], the paracellular mannitol flux entry with LLC-MDR1 cell monolayers was “less than 1 % of mannitol diffusion per hour”. Besides, the Papp at 180 min, 1.85 kBq/mL in [1] was less than 1.2 ×10⁻⁶ cm/s; in data set [2] (setting [5]), 6.07 ± 0.159 ×10⁻⁶ cm/s; in data set [2] (setting [6]), 11.3 ± 1.18 ×10⁻⁶ cm/s; in data set [2] (setting [7]) it was 15.4 ± 0.215 ×10⁻⁶ cm/s; in data set [2] (setting [8]), 21 ± 0.352 ×10⁻⁶ cm/s; in [2] (setting [9]), 5.96 ± 0.407 ×10⁻⁶ cm/s. In addition, the Papp at 180 min, 1.85 kBq/mL in [3] (setting [10]) stood at 5.67 ± 0.252 ×10⁻⁶ cm/s; in data set [3] (setting [12]) it was 13.5 ± 0.372 ×10⁻⁶ cm/s; in [3] (hCMEC/D3-WT, 12-well, Sarstedt #83.3931.040, PET, 1·10^8 pores/cm²), 19.8 ± 0.489 ×10⁻⁶ cm/s; in data set [3] (setting [13]), 5.38 ± 0.432 ×10⁻⁶ cm/s. Moreover, the Mannitol permeability in the data set with RBE4 cell monolayers (setting [5]) is 4.30 ± 0.22 %/h; in the data set with RBE4 cell monolayers (setting [6]), 13.62 ± 0.80 %/h; in the data set on RBE4 cell monolayers (setting [7]) it was 11.15 ± 0.24 %/h; in the data set on RBE4 cell monolayers (setting [8]) it was 19.18 ± 0.13 %/h; in the data set on RBE4 cell monolayers (setting [9]), 4.20 ± 0.30 %/h; in the data set on hCMEC/D3 cell monolayers (setting [10]), 3.81 ± 0.11 %/h. Further, the Mannitol permeability with hCMEC/D3 cell monolayers (setting [11]) came out at 14.76 ± 1.01 %/h; in the data set on hCMEC/D3 cell monolayers (setting [12]) it was 11.17 ± 0.36 %/h; in the data set on hCMEC/D3 cell monolayers (setting [13]) it was 3.71 ± 0.13 %/h. This compound also returned a Papp B→A at 180 min, 1.85 kBq/mL in data set [3] (setting [11]) of 10 ×10⁻⁶ cm/s.

With `COc1cc2c(cc1OC)CN(CCc1ccc(NC(=O)c3cc(OC)c(OC)cc3NC(=O)c3cnc4ccccc4c3)cc1)CC2` [tariquidar], the “effect of Pgp inhibitor on increased Pgp-mediated Rho123 efflux” value in data set [4] is on record as “could be inhibited”. The “effect of Pgp inhibitor on accumulation of Rho123” value at Pgp in hCMEC/D3-WT cells and in the data set on Pgp in RBE4-WT cells was “significantly increased” in each case. Besides, in the data set on Pgp in primary rBCECs, the “effect of Pgp inhibitor in Rho123 uptake assay” value was “significant effect”.
